This assay has as its target phosphorylated active hERK2 enzyme (Homo sapiens (Human), UniProt P28482).
[1] abbreviates: read-out: ERK2 IC50, IMAP-FP assay, 0.5 nM hERK2, 30 μM ATP, 10 point titration, 3 μM starting concentration.

From patent publication US9884048B2, “ERK inhibitors” (Merck Sharp & Dohme Corp., priority 2014, dated 2018) come the findings set out here.

pIC50: −log10 of the molar value. Read-outs that look alike come from different tables or passages of the source.

Chain of phosphorylated active hERK2 enzyme (P28482 whole entry): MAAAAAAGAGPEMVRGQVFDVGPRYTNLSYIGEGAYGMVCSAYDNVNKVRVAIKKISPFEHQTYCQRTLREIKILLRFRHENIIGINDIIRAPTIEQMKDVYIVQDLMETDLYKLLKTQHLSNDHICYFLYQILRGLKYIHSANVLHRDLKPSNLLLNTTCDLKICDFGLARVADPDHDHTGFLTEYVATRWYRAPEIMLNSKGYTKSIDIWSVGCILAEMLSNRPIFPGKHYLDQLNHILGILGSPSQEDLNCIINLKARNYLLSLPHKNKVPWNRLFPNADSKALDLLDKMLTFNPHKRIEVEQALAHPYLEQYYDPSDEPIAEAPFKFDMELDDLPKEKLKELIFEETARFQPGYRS

For `CCC(O)(CC)[C@@H](NC(=O)Nc1cc2cnn(-c3ccnc(C)c3)c2cn1)c1ccccc1` [Example 293, 1-[(1S)-2-ethyl-2-hydroxy-1-phenylbutyl]-3-[1-(2-methylpyridin-4-yl)-1H-pyrazolo[3,4-c]pyridin-5-yl]urea], the pIC50 under setting [1] was 8.58.

As for `Cc1cc(-n2ncc3cc(NC(=O)N[C@@H](c4ccc(F)cc4)C(C)(C)O)ncc32)ccn1` [Example 294, 1-[(1S)-1-(4-fluorophenyl)-2-hydroxy-2-methylpropyl]-3-[1-(2-methylpyridin-4-yl)-1H-pyrazolo[3,4-c]pyridin-5-yl]urea], under setting [1], the pIC50 was 8.97.

With `CC(C)(O)[C@@H](NC(=O)Nc1cc2cnn(-c3ccc(F)cc3)c2cn1)c1ccc(F)cc1` [Example 295, 1-[(1S)-1-(4-fluorophenyl)-2-hydroxy-2-methylpropyl]-3-[1-(4-fluorophenyl)-1H-pyrazolo[3,4-c]pyridin-5-yl]urea], the pIC50 under setting [1] is 8.89.

For the molecule `CC(C)(O)[C@@H](NC(=O)Nc1cc2cnn(-c3ccc(F)cc3)c2cn1)c1ccccc1` [Example 296, 1-[1-(4-fluorophenyl)-1H-pyrazolo[3,4-c]pyridin-5-yl]-3-[(1S)-2-hydroxy-2-methyl-1-phenylpropyl]urea], under setting [1], the pIC50 was 9.09.

As for `Cc1cc(-n2ncc3cc(NC(=O)N[C@@H](c4ccccc4)C(C)O)ncc32)ccn1` (stereo partly drawn) [Example 297, (S)-1-(2-hydroxy-1-phenylpropyl)-3-(1-(2-methylpyridin-4-yl)-1H-pyrazolo[3,4-c]pyridin-5-yl)urea], the pIC50 under setting [1] is 8.97.

For `C[C@@H](NC(=O)Nc1cc2cnn(C)c2c(CO)n1)c1ccccc1` [Example 298, (R)-1-(7-(Hydroxymethyl)-1-methyl-1H-pyrazolo[3,4-c]pyridin-5-yl)-3-(1-phenylethyl)urea], the pIC50 under setting [1] is 7.22.

Consider `CCn1ncc2cc(NC(=O)N[C@H](C)c3ccccc3)nc(CO)c21` [Example 299, 1-[1-Ethyl-7-(hydroxymethyl)-1H-pyrazolo[3,4-c]pyridin-5-yl]-3-[(1R)-1-phenylethyl]urea], for which, under setting [1], the pIC50 was 7.74.

As for `Cc1cc(-n2ncc3cc(NC(=O)N[C@H](C)c4ccccc4)nc(CO)c32)ccn1` [Example 300, 1-[7-(Hydroxymethyl)-1-(2-methylpyridin-4-yl)-1H-pyrazolo[3,4-c]pyridin-5-yl]-3-[(1R)-1-phenylethyl]urea], the pIC50 under setting [1] was 7.99.

On to `COCCCn1ncc2cc(NC(=O)N[C@H](C)c3ccccc3)nc(CO)c21` [Example 301, 1-[7-(hydroxymethyl)-1-(3-methoxypropyl)-1H-pyrazolo[3,4-c]pyridin-5-yl]-3-[(1R)-1-phenylethyl]urea], for which, under setting [1], the pIC50 was 7.11.

As to `CC(C)n1ncc2cc(NC(=O)N[C@H](C)c3ccccc3)nc(CO)c21` [Example 302, 1-[7-(hydroxymethyl)-1-(1-methylethyl)-1H-pyrazolo[3,4-c]pyridin-5-yl]-3-[(1R)-1-phenylethyl]urea], under setting [1], the pIC50 was 7.21.

As for `C[C@@H](NC(=O)Nc1cc2cnn(CC3CCCC3)c2c(CO)n1)c1ccccc1` [Example 303, 1-[1-(cyclopentylmethyl)-7-(hydroxymethyl)-1H-pyrazolo[3,4-c]pyridin-5-yl]-3-[(1R)-1-phenylethyl]urea], the pIC50 was 6.53.

As to `C[C@@H](NC(=O)Nc1cc2cnn(CC3CCC3)c2c(CO)n1)c1ccccc1` [Example 304, 1-[1-(cyclobutylmethyl)-7-(hydroxymethyl)-1H-pyrazolo[3,4-c]pyridin-5-yl]-3-[(1R)-1-phenylethyl]urea], the pIC50 under setting [1] is 6.64.

On to `CCCn1ncc2cc(NC(=O)N[C@H](C)c3ccccc3)nc(CO)c21` [Example 305, 1-[7-(hydroxymethyl)-1-propyl-1H-pyrazolo[3,4-c]pyridin-5-yl]-3-[(1R)-1-phenylethyl]urea], for which, under setting [1], the pIC50 is 7.36.

`CC(C)Cn1ncc2cc(NC(=O)N[C@H](C)c3ccccc3)nc(CO)c21` [Example 306, 1-[7-(hydroxymethyl)-1-(2-methylpropyl)-1H-pyrazolo[3,4-c]pyridin-5-yl]-3-[(1R)-1-phenylethyl]urea]: under setting [1], the pIC50 is 6.75.

A word on the pIC50: it is the IC50 on a negative log10 scale, so that one unit is a factor of ten.
